Drawing on patent publication US9877962B2, “Piperazinyl derivatives for the treatment of cancer” (priority 2011, dated 2018), this text covers EC50 and IC50 for 18 compounds.

Molecules are shown by their SMILES.

The subject of test [1] is HL-60. The test is described as follows: Cytotoxicity test (ViaLight Plus cell proliferation) on HL-60. Format: cell-based, human. Particulars: 72 hours' incubation, cell viability vs 0.5% DMSO control; for IC50: Homo sapiens, HL-60, 72 h, read-out: EC50 HL-60. The text has this: (§1) The effects of the compounds of the invention on the proliferation of cancer cells were studied on different human cancer cell lines of different tissue origin (MCF-7: breast cancer, MCF-7/adr adriamycin-resistant breast cancer, HL-60: acute promyelocytic leukaemia, HL-60/R10: doxorubicin-resistant acute promyelocytic leukaemia, HT29: colon adenocarcinoma, Mia Paca2: pancreatic tumour, Panc-1: pancreatic exocrine tumour, SK-OV-3: cisplatin- and adriamycin resistant ovarian cancer). The cancer cells used for this study were incubated at 37° C. in the presence of one of the compounds of the invention added to the culture medium at different concentrations.
(§2) The cancer cell lines were obtained from ATCC (American Type Culture Collection) for MCF-7, from Hôpital de la Pitié Salpetrière for MCF-7/adr and from Oncodesign (Dijon, France) for HL-60, HL-60/R10, HT29, MiaPaCa2, Panc-1 and SK-OV-3. They were cultured in RPMI 1640 medium containing 2 mM L-Glutamine supplemented with 10% foetal calf serum (Lonza; Verviers, Belgium). All the cell lines were held in culture at 37° C. in a humid atmosphere containing 5% CO2. Cell proliferation was assessed using the ViaLight® Plus Assay Kit (Lonza; Verviers, Belgium) following the manufacturer's instructions. The cells were seeded in 96-well culture plates compatible with luminescence read-off (white plates with transparent bottom) in a proportion of 5 000 to 10 000 cells per well in 100 μl of culture medium. After a pre-incubation time of 24 hours at 37° C., the compounds of the invention dissolved in dimethylsulfoxide (DMSO) were individually added to each well in a proportion of 0.5 μl per well. After 72 hours' incubation at 37° C. in a humid atmosphere containing 5% CO2, 50 μl of lysis buffer were added to each well and 15 minutes later 100 μl of ATP measuring agent were added. The plates were read under a luminometer to evaluate cell viability. The data obtained was processed by computer to obtain the EC50 value i.e. the concentration value of each of the compounds which induces 50% cell viability compared with a control value (0.5% DMSO alone).

The subject of test [2] is HL-60/R10. Put plainly: Cytotoxicity test (ViaLight Plus cell proliferation) on HL-60/R10. The class given is cell-based, human. The note with it: doxorubicin-resistant line, 72 hours' incubation, cell viability vs 0.5% DMSO control, read-out: EC50 HL60/R10; for IC50: Homo sapiens, HL-60, 72 h.
Text: as §1, §2

On to `Cc1cc(CCC(C)(C)C)ccc1N(C(=O)CCl)C(C(=O)N1CCNC(C(C)C)C1)c1ccc(F)cc1` (single isomer, unassigned; dia1) [I-25 dia1], for which the EC50 in test [1] came to 1120 nM; in test [2], 43 nM.

For `Cc1cc(Oc2ccccc2)ccc1N(C(=O)CCl)C(C(=O)N1CCN[C@@H](CC(C)C)C1)c1cccs1` (single isomer, unassigned; dia1) [I-47 dia1], the EC50 in test [1] was determined as 936 nM; in test [2], 54 nM.

Consider `CC(C)[C@H]1CN(C(=O)C(c2cccs2)N(C(=O)CCl)c2cccc(C(F)(F)F)c2)CCN1` (single isomer, unassigned; dia1) [I-50 dia1], for which the EC50 in test [1] is 2100 nM; in test [2] it was 259 nM.

Consider `CC(C)C[C@H]1CN(C(=O)C(c2cccs2)N(C(=O)CCl)c2ccc(Oc3ccccc3)cc2)CCN1` (single isomer, unassigned; dia1) [I-51 dia1], for which the EC50 in test [1] stood at 145 nM; in test [2], 96 nM.

As for `Cc1cc(Cl)ccc1N(C(=O)CCl)C(C(=O)N1CCN[C@@H](C(C)C)C1)c1cccs1` (single isomer, unassigned; dia1) [I-52 dia1], in test [2], the EC50 amounted to 194 nM.

Take `Cc1cc(CCC(C)(C)C)ccc1N(C(=O)CCl)C(C(=O)N1CCNC(C(C)C)C1)c1ccc(F)cc1` (single isomer, unassigned; dia2) [I-25 dia2]: the EC50 worked out at 819 nM in test [1] and 103 nM in test [2].

Take `Cc1cc(Oc2ccccc2)ccc1N(C(=O)CCl)C(C(=O)N1CCN[C@@H](CC(C)C)C1)c1cccs1` (single isomer, unassigned; dia2) [I-47 dia2]: the EC50 in test [1] was 849 nM; in test [2] it was 8 nM.

As to `CC(C)C[C@H]1CN(C(=O)C(c2cccs2)N(C(=O)CCl)c2ccc(Oc3ccccc3)cc2)CCN1` (single isomer, unassigned; dia2) [I-51 dia2], the EC50 in test [1] was determined as 3 nM; in test [2], 1 nM.

As to `Cc1cc(Cl)ccc1N(C(=O)CCl)C(C(=O)N1CCN[C@@H](C(C)C)C1)c1cccs1` (single isomer, unassigned; dia2) [I-52 dia2], the values for the EC50 in test [1] and in test [2] were 223 nM and 24 nM, respectively.

Turning to `Cc1cc(Oc2ccccc2)ccc1N(C(=O)CCl)C(C(=O)N1CCN(C(=O)OC(C)(C)C)C(C(=O)NCc2ccccc2)C1)c1cccs1` (single isomer, unassigned; dia2) [I-53 dia2], the results for the EC50 in test [1] and in test [2] were 547 nM and 305 nM, respectively.

As for `Cc1cc(CCC(C)(C)C)ccc1N(C(=O)CCl)C(C(=O)N1CCN[C@@H](C(C)C)C1)c1ccc(F)cc1` (some centres unmarked) [Example I-23], the IC50 is 559 nM in test [1] and 12 nM in test [2].

As for `Cc1cc(CCC(C)(C)C)ccc1N(C(=O)CCl)C(C(=O)N1C[C@@H](C)N[C@@H](C)C1)c1ccc(F)cc1` (some centres unmarked) [Example I-24], the IC50 in test [1] amounted to 626 nM; in test [2], 15 nM.

As to `CC1CN(C(=O)C(c2cccs2)N(C(=O)CCl)c2cccc(C(F)(F)F)c2)CC(C)N1C(=O)OC(C)(C)C` (centres unmarked) [Example I-28], the IC50 in test [1] amounted to 623 nM; in test [2], 206 nM.

With `C[C@@H]1CN(C(=O)[C@H](c2cccs2)N(C(=O)CCl)c2ccc(Oc3ccccc3)cc2)C[C@H](C)N1` [Example I-44], the EC50 in test [1] turned out to be 215 nM; in test [2] it was 7 nM.

Regarding `Cc1cc(Oc2ccccc2)ccc1N(C(=O)CCl)C(C(=O)N1CCNC(c2ccccc2)C1)c1cccs1` (centres unmarked) [Example I-45], the IC50 in test [1] is 2140 nM; in test [2] it was 17 nM.

Consider `Cc1cc(Oc2ccccc2)ccc1N(C(=O)CCl)C(C(=O)N1CCNC(Cc2ccccc2)C1)c1cccs1` (centres unmarked) [Example I-48], for which the IC50 in test [1] was 1990 nM; in test [2], 10 nM.

As for `Cc1cc(Cl)ccc1N(C(=O)CCl)C(C(=O)N1C[C@@H](C)N[C@@H](C)C1)c1cccs1` (some centres unmarked) [Example I-49], the IC50 in test [1] was determined as 1170 nM; in test [2], 321 nM.

For the compound `Cc1cc(Oc2ccccc2)ccc1N(C(=O)CCl)C(C(=O)N1CCNCC1)c1ccc(F)cc1` (centres unmarked) [reference compound], the IC50 in test [1] was 1630 nM; in test [2], 226 nM.
